In one assay the target is T1, FGFR1 (Homo sapiens, UniProt P11362).
T1 construct: made in house; host or cells: E. coli (BL21-derived), T7 phage
As to the kind of experiment: Kinase binding assay (kinase-tagged T7 phage, affinity beads, qPCR), Kd. The note with it: read-out: FGFR1 (Kd nM). The method in brief: (§1)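 Competition binding of compounds against kinase-tagged T7 phage captured on immobilised biotinylated ligand beads; bead-bound kinase quantified by qPCR of eluates. 11-point 3-fold dilution, 0.9% DMSO final; Kd from Hill fit with slope fixed at −1.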

The next assay concerns the target T2, FGFR3 (Homo sapiens, UniProt P22607).
T2 construct: made in house; host or cells: E. coli (BL21-derived), T7 phage
The assay is described as above. The note with it: read-out: FGFR3 (Kd nM). The method, boiled down:
as §1

The subject of assay [1] is KATO-III cell line (FGFR2 amplification). As to the kind of experiment: Cancer cell line cell viability assay (Cell Titer-Glo), 72 hr. The note with it: Homo sapiens, KATO III. The format is cell-based. The method in brief:
(§2)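 Cells seeded at 5,000-20,000/well, incubated overnight, then treated with a 9-dose, 4-fold dilution series from 3 μM in triplicate at 37° C, 5% CO2. Viability read by Cell Titer-Glo 2.0 luminescence as percent of DMSO control; IC50 from 4-parameter variable-slope sigmoidal fit.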
(In ATP-based viability assays light output follows the ATP content of the culture.)

In assay [2] the test system is KG-1 cell line (FGFR 1-fusion). The assay is described as above. The format is cell-based. The conditions noted are these: Homo sapiens, KG-1, KG-1 cell line (FGFR1-fusion). The method in brief:
as §2

Assay [3] relates to RT112/84 cell line (FGFR3-fusion). Described as above. The format is cell-based. The conditions noted are these: Homo sapiens, RT112/84, RT112/84 cell line (FGFR3-fusion). The method in brief:
as §2

Assay [4] relates to MDA-MB-453 cell line (FGFR4-Y367C). As to the kind of experiment: Cancer cell line cell viability assay (Cell Titer-Glo), 120 hr. The class given is cell-based. The note with it: Homo sapiens. The method, boiled down: as §2

Results on 15 compounds are retold here after patent publication US20250368666A1, “INDAZOLE COMPOUNDS” (TYRA BIOSCIENCES, INC., priority 2022, published 2025).

By Kd is commonly meant the free concentration of one partner at which half of the binding sites on the other are occupied at equilibrium, for simple one-to-one binding. By IC50 is commonly meant the concentration that gives 50% inhibition. A lower IC50 goes with inhibition by little substance.

T2 sequence (P22607 23-806): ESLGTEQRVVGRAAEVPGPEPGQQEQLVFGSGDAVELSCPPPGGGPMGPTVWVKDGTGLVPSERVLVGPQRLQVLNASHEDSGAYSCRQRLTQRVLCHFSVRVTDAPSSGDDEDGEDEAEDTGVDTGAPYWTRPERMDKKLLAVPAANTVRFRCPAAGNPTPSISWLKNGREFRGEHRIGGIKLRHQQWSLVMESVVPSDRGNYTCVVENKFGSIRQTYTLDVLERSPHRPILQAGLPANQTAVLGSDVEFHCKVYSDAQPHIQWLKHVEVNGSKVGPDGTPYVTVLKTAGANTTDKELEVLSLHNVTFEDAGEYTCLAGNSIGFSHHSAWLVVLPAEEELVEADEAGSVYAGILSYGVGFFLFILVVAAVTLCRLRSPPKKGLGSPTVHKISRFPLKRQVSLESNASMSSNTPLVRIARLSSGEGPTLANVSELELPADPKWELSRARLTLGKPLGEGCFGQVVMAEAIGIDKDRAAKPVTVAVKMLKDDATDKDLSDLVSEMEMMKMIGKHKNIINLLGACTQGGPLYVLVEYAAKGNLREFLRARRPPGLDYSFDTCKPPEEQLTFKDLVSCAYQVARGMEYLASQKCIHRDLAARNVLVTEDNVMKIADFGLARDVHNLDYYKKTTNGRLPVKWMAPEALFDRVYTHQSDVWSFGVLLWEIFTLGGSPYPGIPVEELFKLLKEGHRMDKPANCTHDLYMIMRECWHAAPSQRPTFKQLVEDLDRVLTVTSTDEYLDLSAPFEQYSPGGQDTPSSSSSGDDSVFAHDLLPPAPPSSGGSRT
T1 sequence (P11362 22-822): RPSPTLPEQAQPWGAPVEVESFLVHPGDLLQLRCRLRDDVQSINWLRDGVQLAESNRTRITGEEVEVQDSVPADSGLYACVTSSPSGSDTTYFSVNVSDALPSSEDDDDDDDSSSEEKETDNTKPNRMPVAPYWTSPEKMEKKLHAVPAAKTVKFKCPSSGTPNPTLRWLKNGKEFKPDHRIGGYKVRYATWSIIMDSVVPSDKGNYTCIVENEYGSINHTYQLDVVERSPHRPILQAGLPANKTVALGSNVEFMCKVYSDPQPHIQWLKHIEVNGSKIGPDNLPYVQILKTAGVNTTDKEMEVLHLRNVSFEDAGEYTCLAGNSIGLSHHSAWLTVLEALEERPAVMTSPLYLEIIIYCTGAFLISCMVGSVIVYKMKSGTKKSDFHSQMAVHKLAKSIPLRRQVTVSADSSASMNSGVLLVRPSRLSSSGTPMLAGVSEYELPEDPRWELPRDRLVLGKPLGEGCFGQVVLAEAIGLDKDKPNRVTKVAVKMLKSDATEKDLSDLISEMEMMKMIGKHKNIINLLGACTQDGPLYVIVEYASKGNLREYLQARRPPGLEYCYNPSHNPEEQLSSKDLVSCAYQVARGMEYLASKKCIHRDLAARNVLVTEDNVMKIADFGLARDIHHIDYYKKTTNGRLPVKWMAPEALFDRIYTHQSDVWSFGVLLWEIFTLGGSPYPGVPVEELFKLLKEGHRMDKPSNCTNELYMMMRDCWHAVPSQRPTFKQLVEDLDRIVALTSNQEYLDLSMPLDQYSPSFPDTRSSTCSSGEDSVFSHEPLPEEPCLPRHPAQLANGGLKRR

Take `C=CCC1(N)CN(c2ccc(-c3n[nH]c4ccc(O[C@H](C)c5c(Cl)cncc5Cl)cc34)nn2)C1` [Example 274, (R)-3-allyl-1-(6-(5-(1-(3,5-dichloropyridin-4-yl)ethoxy)-1H-indazol-3-yl)pyridazin-3-yl)azetidin-3-amine]: the Kd on FGFR1 and on FGFR3 was 1 to 50 nM in each case. Besides, the half-maximal inhibitory concentration (IC50) is 0.1 to 50 nM in assay [1], 50 to 200 nM in assay [2], 0.1 to 50 nM in assay [3] and 200 to 1000 nM in assay [4].

For the compound `CC(C)NC1(C)CN(c2ccc(-c3n[nH]c4ccc(O[C@H](C)c5c(Cl)cncc5Cl)cc34)nn2)C1` [Example 244, (R)-1-(6-(5-(1-(3,5-dichloropyridin-4-yl)ethoxy)-1H-indazol-3-yl)pyridazin-3-yl)-N-isopropyl-3-methylazetidin-3-amine], the dissociation constant (Kd) on FGFR1 and at FGFR3 was 1 to 50 nM each time. For the same compound, the concentration for half-maximal inhibition (IC50) in assay [1] lay in the range of 50 to 200 nM; in assay [2] it was 50 to 200 nM; in assay [3] it was 0.1 to 50 nM; in assay [4], 200 to 1000 nM.

With `C[C@@H](Oc1ccc2[nH]nc(-c3cnc(N4CC(C)(N(C)CC5CC5)C4)c(F)c3)c2c1)c1c(Cl)cncc1Cl` [Example 246, (R)-N-(cyclopropyl-methyl)-1-(5-(5-(1-(3,5-dichloropyridin-4-yl)ethoxy)-1H-indazol-3-yl)-3-fluoropyridin-2-yl)-N,3-dimethylazetidin-3-amine], the equilibrium dissociation constant (Kd) on FGFR1 and at FGFR3 was 1 to 50 nM in each case. Moreover, the half-inhibitory concentration (IC50) is 50 to 200 nM in assay [1], 200 to 1000 nM in assay [2], 0.1 to 50 nM in assay [3] and 200 to 1000 nM in assay [4].

Consider `CC(C)CNC1(C)CN(c2ccc(-c3n[nH]c4ccc(O[C@H](C)c5c(Cl)cncc5Cl)cc34)nn2)C1` [Example 242, (R)-1-(6-(5-(1-(3,5-dichloropyridin-4-yl)ethoxy)-1H-indazol-3-yl)pyridazin-3-yl)-N-isobutyl-3-methylazetidin-3-amine], for which the Kd at FGFR1 and at FGFR3 was 1 to 50 nM throughout. Also, the IC50 in assay [1] was 50 to 200 nM; in assay [2], 50 to 200 nM; in assay [3] it was 0.1 to 50 nM; in assay [4], 200 to 1000 nM.

As for `C[C@@H](Oc1ccc2[nH]nc(-c3cnc(N4CC(C)(NCC5CC5)C4)cc3F)c2c1)c1c(Cl)cncc1Cl` [Example 243, (R)—N-(cyclopropylmethyl)-1-(5-(5-(1-(3,5-dichloropyridin-4-yl)ethoxy)-1H-indazol-3-yl)-4-fluoropyridin-2-yl)-3-methylazetidin-3-amine], the equilibrium dissociation constant (Kd) at FGFR1 and on FGFR3 was 1 to 50 nM throughout. The IC50 fell in the range of 200 to 1000 nM in assay [1], 200 to 1000 nM in assay [2], 0.1 to 50 nM in assay [3] and 50 to 200 nM in assay [4].

For `C[C@@H](Oc1ccc2[nH]nc(-c3cnc(N4CC(N)(c5cnn(C)c5)C4)c(F)c3)c2c1)c1c(Cl)cncc1Cl` [Example 277, (R)-1-(5-(5-(1-(3,5-dichloropyridin-4-yl)ethoxy)-1H-indazol-3-yl)-3-fluoropyridin-2-yl)-3-(1-methyl-1H-pyrazol-4-yl)azetidin-3-amine], the Kd at FGFR1 and at FGFR3 was 1 to 50 nM in each case. Moreover, the IC50 in assay [1] fell in the range of 0.1 to 50 nM; in assay [2], 50 to 200 nM; in assay [3], 0.1 to 50 nM; in assay [4] it was 0.1 to 50 nM.

For the compound `C[C@@H](Oc1ccc2[nH]nc(-c3ccc(N4CC(N)(CC5CC5)C4)nn3)c2c1)c1c(Cl)cncc1Cl` [Example 272, (R)-3-(cyclopropylmethyl)-1-(6-(5-(1-(3,5-dichloropyridin-4-yl)ethoxy)-1H-indazol-3-yl)pyridazin-3-yl)azetidin-3-amine], the dissociation constant (Kd) on FGFR1 and at FGFR3 was 1 to 50 nM throughout. The concentration for half-maximal inhibition (IC50) was in the range of 50 to 200 nM in assay [1], 50 to 200 nM in assay [2], 0.1 to 50 nM in assay [3] and 200 to 1000 nM in assay [4].

As for `C[C@@H](Oc1ccc2[nH]nc(-c3cnc(N4CC(C)(OCCN5CCCC5)C4)c(F)c3)c2c1)c1c(Cl)cncc1Cl` [Example 261, (R)-5-(1-(3,5-dichloropyridin-4-yl)ethoxy)-3-(5-fluoro-6-(3-methyl-3-(2-(pyrrolidin-1-yl)ethoxy)azetidin-1-yl)pyridin-3-yl)-1H-indazole], the equilibrium dissociation constant (Kd) on FGFR1 and on FGFR3 was 1 to 50 nM in each case. Also, the half-inhibitory concentration (IC50) is 0.1 to 50 nM in assay [1], 50 to 200 nM in assay [2], 0.1 to 50 nM in assay [3] and 50 to 200 nM in assay [4].

Regarding `C[C@@H](Oc1ccc2[nH]nc(-c3cnc(N4CC(N)(Cc5ccnn5C)C4)c(F)c3)c2c1)c1c(Cl)cncc1Cl` [Example 283, (R)-1-(5-(5-(1-(3,5-dichloropyridin-4-yl)ethoxy)-1H-indazol-3-yl)-3-fluoropyridin-2-yl)-3-((1-methyl-1H-pyrazol-5-yl)methyl)azetidin-3-amine], the Kd on FGFR1 and on FGFR3 was 1 to 50 nM throughout. Further, the concentration for half-maximal inhibition (IC50) in assay [1], in assay [2], in assay [3] and in assay [4] was 0.1 to 50 nM throughout.

For `C[C@@H](Oc1ccc2[nH]nc(-c3ccc(N4CC(N)(CCO)C4)nn3)c2c1)c1c(Cl)cncc1Cl` [Example 267, (R)-2-(3-amino-1-(6-(5-(1-(3,5-dichloropyridin-4-yl)ethoxy)-1H-indazol-3-yl)pyridazin-3-yl)azetidin-3-yl)ethanol], the dissociation constant (Kd) on FGFR1 and on FGFR3 was 1 to 50 nM each time. The IC50 in assay [1] was 50 to 200 nM; in assay [2], over 1000 nM; in assay [3], 0.1 to 50 nM; in assay [4] it was 200 to 1000 nM.

Turning to `CC(C)CN(C)C1(C)CN(c2ncc(-c3n[nH]c4ccc(O[C@H](C)c5c(Cl)cncc5Cl)cc34)cc2F)C1` [Example 245, (R)-1-(5-(5-(1-(3,5-dichloropyridin-4-yl)ethoxy)-1H-indazol-3-yl)-3-fluoropyridin-2-yl)-N-isobutyl-N,3-dimethylazetidin-3-amine], the Kd at FGFR1 is 50 to 300 nM; at FGFR3, 1 to 50 nM. Moreover, the concentration for half-maximal inhibition (IC50) in assay [1] is over 1000 nM; in assay [2] it was over 1000 nM; in assay [3] it was 50 to 200 nM; in assay [4], over 1000 nM.

As for `C[C@@H](Oc1ccc2[nH]nc(-c3cnc(N4CC(N)(CCS(C)(=O)=O)C4)c(F)c3)c2c1)c1c(Cl)cncc1Cl` [Example 270, (R)-1-(5-(5-(1-(3,5-dichloropyridin-4-yl)ethoxy)-1H-indazol-3-yl)-3-fluoropyridin-2-yl)-3-(2-(methylsulfonyl)ethyl)azetidin-3-amine], the dissociation constant (Kd) at FGFR1 and at FGFR3 was 1 to 50 nM in each case. In addition, the IC50 fell in the range of 0.1 to 50 nM in assay [1], 50 to 200 nM in assay [2], 0.1 to 50 nM in assay [3] and 0.1 to 50 nM in assay [4].

With `CC(C)=CCC1(N)CN(c2ncc(-c3n[nH]c4ccc(O[C@H](C)c5c(Cl)cncc5Cl)cc34)cc2F)C1` [Example 271, (R)-1-(5-(5-(1-(3,5-dichloropyridin-4-yl)ethoxy)-1H-indazol-3-yl)-3-fluoropyridin-2-yl)-3-(3-methylbut-2-en-1-yl)azetidin-3-amine], the Kd at FGFR1 and at FGFR3 was 1 to 50 nM throughout. For the same compound, the half-maximal inhibitory concentration (IC50) in assay [1] was in the range of 50 to 200 nM; in assay [2], 200 to 1000 nM; in assay [3], 0.1 to 50 nM; in assay [4], 0.1 to 50 nM.

As to `CCC1(N)CN(c2ncc(-c3n[nH]c4ccc(O[C@H](C)c5c(Cl)cncc5Cl)cc34)cc2F)C1` [Example 260, 1-[5-[5-[(1R)-1-(3,5-dichloro-4-pyridyl)ethoxy]-1H-indazol-3-yl]-3-fluoro-2-pyridyl]-3-ethyl-azetidin-3-amine], the Kd on FGFR1 and on FGFR3 was 1 to 50 nM each time. Moreover, the half-inhibitory concentration (IC50) in assay [1] lay in the range of 50 to 200 nM; in assay [2], 50 to 200 nM; in assay [3], 0.1 to 50 nM; in assay [4], 0.1 to 50 nM.

As to `C[C@@H](Oc1ccc2[nH]nc(-c3cnc(N4CC(N)(Cc5ccn(C)n5)C4)c(F)c3)c2c1)c1c(Cl)cncc1Cl` [Example 282, (R)-1-(5-(5-(1-(3,5-dichloropyridin-4-yl)ethoxy)-1H-indazol-3-yl)-3-fluoropyridin-2-yl)-3-((1-methyl-1H-pyrazol-3-yl)methyl)azetidin-3-amine], the Kd at FGFR1 and on FGFR3 was 1 to 50 nM each time. In addition, the half-maximal inhibitory concentration (IC50) in assay [1] was 50 to 200 nM; in assay [2], 50 to 200 nM; in assay [3] it was 0.1 to 50 nM; in assay [4], 50 to 200 nM.
